Laboratory results published in ChEMBL document CHEMBL1201862, “PubChem BioAssay data set” (2004).
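In this assay, cells in 96-well plates receive the compound at five concentrations for 48 hours. Endpoints are linearly interpolated between the surrounding concentrations. Abbreviation: GI50, concentration required for 50% inhibition of growth.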 Calls of active or inactive are those of the source. Rule as the data show it: active = GI50 up to about 1.1 µM and inactive = higher.

Assays:
Assay in all cases: growth of human tumour cells (NCI), 48 h
ACHN = system: ACHN
BT-549 = system: BT-549
HCC 2998 = system: HCC 2998
HCT-116 = system: HCT-116
HT-29 = system: HT-29
Hs-578T = system: Hs-578T
IGROV-1 = system: IGROV-1
MDA-MB-231 = system: MDA-MB-231
MDA-N = system: MDA-N
MOLT-4 = system: MOLT-4
NCI-H226 = system: NCI-H226
NCI-H522 = system: NCI-H522
NCI/ADR-RES = system: NCI/ADR-RES
PC-3 = system: PC-3
SK-MEL-28 = system: SK-MEL-28
SK-MEL-5 = system: SK-MEL-5
SNB-19 = system: SNB-19
SNB-75 = system: SNB-75
SR = system: SR
T47D = system: T47D

Measured: GI50

CC(C)C(C/C=C1/CC(CO)(COC(=O)c2ccccc2)OC1=O)C(C)C (stereo not given)
inactive: ACHN 13.9 µM | BT-549 18.3 µM | HCC 2998 18.8 µM | HCT-116 16 µM | HT-29 18.7 µM | Hs-578T 7.43 µM | IGROV-1 20.2 µM | MDA-MB-231 15.7 µM | MDA-N 15.7 µM | MOLT-4 11.8 µM | NCI-H226 16 µM | NCI-H522 19.9 µM | NCI/ADR-RES 19.2 µM | PC-3 13.6 µM | SK-MEL-28 14.1 µM | SK-MEL-5 8.45 µM | SNB-19 16.7 µM | SNB-75 7.5 µM | SR 30.6 µM | T47D 15.6 µM

CC1c2ccccc2Cn2cc3c(c21)C(=O)c1cccc(OP(=O)(O)OCc2ccccc2)c1C3=O (stereo not given)
inactive: ACHN > 100 µM | BT-549 > 100 µM | HCC 2998 > 100 µM | HCT-116 > 100 µM | HT-29 > 100 µM | Hs-578T > 100 µM | IGROV-1 > 100 µM | MDA-MB-231 > 100 µM | MDA-N > 100 µM | MOLT-4 > 100 µM | NCI-H226 > 100 µM | NCI-H522 > 100 µM | NCI/ADR-RES > 100 µM | PC-3 > 100 µM | SK-MEL-28 > 100 µM | SK-MEL-5 > 100 µM | SNB-19 > 100 µM | SNB-75 > 100 µM | SR > 66.5 µM | T47D 51.6 µM

O=C(O)C1CC=CCC1C(=O)Nc1cccc(O)c1 (stereo not given)
inactive: ACHN > 100 µM | BT-549 > 100 µM | HCC 2998 > 100 µM | HCT-116 > 100 µM | HT-29 > 100 µM | Hs-578T > 100 µM | IGROV-1 > 100 µM | MDA-MB-231 > 100 µM | MDA-N > 100 µM | MOLT-4 > 100 µM | NCI-H226 > 100 µM | NCI-H522 > 100 µM | NCI/ADR-RES > 100 µM | PC-3 > 100 µM | SK-MEL-28 > 100 µM | SK-MEL-5 > 100 µM | SNB-19 > 100 µM | SNB-75 > 100 µM | SR > 100 µM | T47D > 100 µM

CC1Cc2c(cc(N)nc2Br)NC1=O (stereo not given)
inactive: ACHN 64.3 µM | BT-549 92.9 µM | HCC 2998 > 100 µM | HCT-116 64.6 µM | HT-29 > 100 µM | Hs-578T > 100 µM | IGROV-1 > 100 µM | MDA-MB-231 > 100 µM | MDA-N 46.1 µM | MOLT-4 43.1 µM | NCI-H226 > 100 µM | NCI-H522 > 100 µM | NCI/ADR-RES > 100 µM | PC-3 > 100 µM | SK-MEL-28 > 100 µM | SK-MEL-5 85.1 µM | SNB-19 > 100 µM | SNB-75 74.8 µM | SR 84.1 µM | T47D 42.7 µM

Cn1c(=O)cc(/N=N\c2ccc(Cl)c(Cl)c2)[nH]c1=O
inactive: ACHN 21.2 µM | BT-549 29 µM | HCC 2998 56.8 µM | HCT-116 28.4 µM | HT-29 19.9 µM | Hs-578T 33.4 µM | IGROV-1 33 µM | MDA-MB-231 24.8 µM | MDA-N 18.7 µM | MOLT-4 28.6 µM | NCI-H226 > 100 µM | NCI-H522 25.6 µM | NCI/ADR-RES 34.2 µM | PC-3 23.3 µM | SK-MEL-28 23.6 µM | SK-MEL-5 35.2 µM | SNB-19 63.8 µM | SNB-75 49.2 µM | SR 25.5 µM | T47D 29.7 µM

COC(=O)/C=C/C(=O)Nc1cc(Cl)c(Cl)cc1CC(=O)N(C)[C@H]1CCCC[C@@H]1N1CCCC1
inactive: ACHN 2.85 µM | BT-549 12.9 µM | HCC 2998 7.67 µM | HCT-116 6.5 µM | HT-29 7.8 µM | Hs-578T 18.1 µM | IGROV-1 7.21 µM | MDA-MB-231 13.3 µM | MDA-N 6.61 µM | MOLT-4 3.18 µM | NCI-H226 15.3 µM | NCI-H522 1.79 µM | NCI/ADR-RES 14.7 µM | PC-3 5.05 µM | SK-MEL-28 16.1 µM | SK-MEL-5 8.67 µM | SNB-19 18.3 µM | SNB-75 13.8 µM | SR 1.95 µM | T47D 8.73 µM

Oc1ccc(/C=C/c2cc(O)cc3c2C(c2cc(O)cc(O)c2)C(c2ccc(O)c(O)c2)O3)cc1 (stereo not given)
inactive: ACHN 15 µM | BT-549 23.7 µM | HCC 2998 25.4 µM | HCT-116 35.9 µM | HT-29 17.6 µM | Hs-578T 26.4 µM | IGROV-1 31.4 µM | MDA-MB-231 29 µM | MDA-N 18.2 µM | MOLT-4 11.6 µM | NCI-H226 26 µM | NCI-H522 27 µM | NCI/ADR-RES 31.8 µM | PC-3 31.3 µM | SK-MEL-28 25.1 µM | SK-MEL-5 17.2 µM | SNB-19 18.6 µM | SNB-75 49.5 µM | SR 17.6 µM | T47D 13.1 µM
